Measured values: patent US12630528B2, “Amino aryl derivative useful as diacylglycerol acyltransferase 2 inhibitor and use thereof” (LG CHEM, LTD., priority 2019, dated 2026)

target: T1, human DGAT2 (Homo sapiens, UniProt Q96PD7); assay: DGAT2 enzyme activity inhibition, Phospholipid FlashPlate SPA; assay type: biochemical; settings: recombinant human DGAT2 membrane protein from Sf-21 cells; inhibition of [14C]-TG production; 37° C.
T1 construct: FLAG (DYKDDDDK); made in house; host or cells: Sf-21 insect cells (BacPAK baculovirus system); membrane fraction used
T1 sequence (Q96PD7 1-388): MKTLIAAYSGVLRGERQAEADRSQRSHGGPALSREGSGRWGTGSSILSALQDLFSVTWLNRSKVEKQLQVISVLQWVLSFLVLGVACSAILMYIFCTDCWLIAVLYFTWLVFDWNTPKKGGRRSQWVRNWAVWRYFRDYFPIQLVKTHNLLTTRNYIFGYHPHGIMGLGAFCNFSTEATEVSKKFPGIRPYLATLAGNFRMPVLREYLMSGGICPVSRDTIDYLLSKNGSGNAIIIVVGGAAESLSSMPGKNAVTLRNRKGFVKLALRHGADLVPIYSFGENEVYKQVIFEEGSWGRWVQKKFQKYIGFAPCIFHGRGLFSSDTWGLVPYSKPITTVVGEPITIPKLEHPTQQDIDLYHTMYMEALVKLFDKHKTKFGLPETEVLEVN
Outline: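 Sf-21 membranes expressing recombinant human DGAT2 (2 μg) preincubated with compound (3 nM–10 μM, 1% DMSO) and 50 μM 1,2 sn-oleoyl glycerol, 20 min at 37 °C, then 1 μM [14C]oleoyl-CoA for 15 min. [14C]-TG counted by SPA; inhibition as % of untreated.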

SMILES	IC50 [nM]
CCOc1ccccc1O[C@@H]1CCCN(c2cncc(Nc3nc4ccc(C(C)(C)C(=O)O)cc4o3)n2)C1 [Example 17, (R)-2-(2-((6-(3-(2-ethoxyphenoxy)piperidin-1-yl)pyrazin-2-yl)amino)benzo[d]oxazol-6-yl)-2-methylpropanoic Acid]	1300
CCOc1ccccc1O[C@@H]1CCCN(c2nccc(Nc3cccc(-c4cccc(CC(C)(C)C(=O)O)c4)n3)n2)C1 [Example 66, (R)-3-(3-(6-((2-(3-(2-ethoxyphenoxy)piperidin-1-yl)pyrimidin-4-yl)amino)pyridin-2-yl)phenyl)-2,2-dimethylpropanoic Acid]	3500
CCOc1ccccc1O[C@@H]1CCCN(c2ccnc(Nc3cccc(-c4cccc(CC(C)(C)C(=O)O)c4)n3)n2)C1 [Example 67, (R)-3-(3-(6-((4-(3-(2-ethoxyphenoxy)piperidin-1-yl)pyrimidin-2-yl)amino)pyridin-2-yl)phenyl)-2,2-dimethylpropanoic Acid]	2400
CCOc1ccccc1O[C@@H]1CCCN(c2cncc(Nc3nccs3)n2)C1 [Example 3, (R)—N-(6-(3-(2-ethoxyphenoxy)piperidin-1-yl)pyrazin-2-yl)thiazol-2-amine]	6300
CCOc1ccccc1O[C@@H]1CCCN(c2cncc(Nc3nccc(N4CCC[C@@H](/C=C/C(=O)O)C4)n3)n2)C1 [Example 129, (E)-3-((S)-1-(2-((6-((R)-3-(2-ethoxyphenoxy)piperidin-1-yl)pyrazin-2-yl)amino)pyrimidin-4-yl)piperidin-3-yl)acrylic Acid]	800

Stronger by IC50, values ahead:

IC50 [nM]	SMILES
500	CCOc1cccnc1O[C@@H]1CCCN(c2cncc(Nc3cccc(-c4ccc(OC(C)(C)C(=O)O)cc4)n3)n2)C1 [Example 83, (R)-2-(4-(6-((6-(3-((3-ethoxypyridin-2-yl)oxy)piperidin-1-yl)pyrazin-2-yl)amino)pyridin-2-yl)phenoxy)-2-methylpropanoic Acid]
130	CCOc1ccccc1O[C@@H]1CCCN(c2cncc(Nc3nccc(-c4ccc(OC(C)(C)C(=O)O)cc4)n3)n2)C1 [Example 160, (R)-2-(4-(2-((6-(3-(2-ethoxyphenoxy)piperidin-1-yl)pyrazin-2-yl)amino)pyrimidin-4-yl)phenoxy)-2-methylpropanoic Acid]
300	CCOc1cccnc1O[C@@H]1CCCN(c2cncc(Nc3ccc(F)c(-c4cccc(CC(C)(C)C(=O)O)c4)n3)n2)C1 [Example 103, (R)-3-(3-(6-((6-(3-((3-ethoxypyridin-2-yl)oxy)piperidin-1-yl)pyrazin-2-yl)amino)-3-fluoropyridin-2-yl)phenyl)-2,2-dimethylpropanoic Acid]
91	CCOc1ccccc1O[C@@H]1CCCN(c2cncc(Nc3cccc(-c4ccc(C(C)(C)C(=O)O)cc4)n3)n2)C1 [Example 61, (R)-2-(4-(6-((6-(3-(2-ethoxyphenoxy)piperidin-1-yl)pyrazin-2-yl)amino)pyridin-2-yl)phenyl)-2-methylpropanoic Acid]
83	CCOc1ccccc1O[C@@H]1CCCN(c2cncc(Nc3cccc(Oc4cccc(CC(=O)O)c4)n3)n2)C1 [Example 95, (R)-2-(3-((6-((6-(3-(2-ethoxyphenoxy)piperidin-1-yl)pyrazin-2-yl)amino)pyridin-2-yl)oxy)phenyl)acetic Acid]
130	CCOc1cccnc1O[C@@H]1CCCN(c2cncc(Nc3cccc(-c4cccc(CC(C)(C)C(=O)O)c4)n3)n2)C1 [Example 64, (R)-3-(3-(6-((6-(3-((3-ethoxypyridin-2-yl)oxy)piperidin-1-yl)pyrazin-2-yl)amino)pyridin-2-yl)phenyl)-2,2-dimethylpropanoic Acid]
300	CCOc1ccccc1O[C@@H]1CCCN(c2cncc(Nc3cccc(-c4cnn(CC(C)(C)C(=O)O)c4)n3)n2)C1 [Example 86, (R)-3-(4-(6-((6-(3-(2-ethoxyphenoxy)piperidin-1-yl)pyrazin-2-yl)amino)pyridin-2-yl)-1H-pyrazol-1-yl)-2,2-dimethylpropanoic Acid]
